Tests used:
Test in all cases: combination Emax (second highest fraction inhibited in the dose matrix, 72 h); higher = more inhibition; extreme values may be limits of the assay
[1] = tested on: MDA-MB-157 (Breast Carcinoma)
In short: (§1)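 After 24 hours at 37°C and 5% CO2 in 1536-well plates, cells in DMEM/F12 or RPMI plus 10% FBS received two-drug dose matrices for 72 hours. Viability came from CellTiter-Glo 2.0 luminescence and was scaled as inhibition, anchored at 0 by vehicle wells and at 1 by blank wells. Combination Emax is taken as the second-highest inhibition in the matrix, and Bliss excess as the observed combination effect less EA + EB − EA·EB, with EA and EB the single-agent effects.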

DSH1 (Bladder Carcinoma) = tested on: DSH1 (Bladder Carcinoma)
In short: as §1

[2] = tested on: KARPAS-1106P (B-Cell Non-Hodgkin's Lymphoma)
In short: as §1

[3] = tested on: SW1990 (Pancreatic Carcinoma)
In short: as §1

[4] = tested on: SNU-C5 (Colorectal Carcinoma)
In short: as §1

SN12C (Kidney Carcinoma) = tested on: SN12C (Kidney Carcinoma)
In short: as §1

[5] = tested on: NCI-H1299 (Non-Small Cell Lung Carcinoma)
In short: as §1

[6] = tested on: IHH-4 (Thyroid Gland Carcinoma)
In short: as §1

[7] = tested on: KARPAS-620 (Plasma Cell Myeloma)
In short: as §1

[8] = tested on: HPAC (Pancreatic Carcinoma)
In short: as §1

[9] = tested on: DOV13 (Ovarian Carcinoma)
In short: as §1

[10] = tested on: SW756 (Cervical Carcinoma)
In short: as §1

[11] = tested on: HCC2157 (Breast Carcinoma)
In short: as §1

SK-N-FI (Neuroblastoma) = tested on: SK-N-FI (Neuroblastoma)
In short: as §1

[12] = tested on: CFPAC-1 (Pancreatic Carcinoma)
In short: as §1

[13] = tested on: KM-H2 (Hodgkin's Lymphoma)
In short: as §1

[14] = tested on: MDA-MB-231 (Breast Carcinoma)
In short: as §1

CAL-78 (Chondrosarcoma) = tested on: CAL-78 (Chondrosarcoma)
In short: as §1

[15] = tested on: SW780 (Bladder Carcinoma)
In short: as §1

IGR-1 (Melanoma) = tested on: IGR-1 (Melanoma)
In short: as §1

Row | combination Emax [13] | SMILES | combination Emax [1] | combination Emax (DSH1 (Bladder Carcinoma)) | combination Emax [2] | combination Emax [3] | combination Emax [4] | combination Emax (SN12C (Kidney Carcinoma)) | combination Emax [5] | combination Emax [6] | combination Emax [7] | combination Emax [8] | combination Emax [9] | combination Emax [10] | combination Emax [11] | combination Emax (SK-N-FI (Neuroblastoma)) | combination Emax [12] | combination Emax [14] | combination Emax (CAL-78 (Chondrosarcoma)) | combination Emax [15] | combination Emax (IGR-1 (Melanoma))
1 | 0.943 | COc1nnc2ccc(N3CCC(c4ccc(OCCN5CCN(C)C(=O)[C@H]5C)cc4)CC3)nn12 [AZD5153] + C=CCn1c(=O)c2cnc(Nc3ccc(N4CCN(C)CC4)cc3)nc2n1-c1cccc(C(C)(C)O)n1 [AZD1775] (first compound max 1 µM, partner max 1 µM) | 0.636 | 0.614 | 0.884 | 0.24 | 0.682 | 0.165 | 0.777 | 0.662 | 0.764 | 0.735 | 0.826 | 0.426 | 1 | 0.641 | 0.506 | 0.612 | 0.551 | 0.429 | 0.623
2 | 0.351 | COc1nnc2ccc(N3CCC(c4ccc(OCCN5CCN(C)C(=O)[C@H]5C)cc4)CC3)nn12 [AZD5153] + CCN(CCO)CCCOc1ccc2c(Nc3cc(CC(=O)Nc4cccc(F)c4)[nH]n3)ncnc2c1 [AZD2811] (first compound max 1 µM, 7x7, partner max 1 µM) | 0.54 | 0.651 | 0.741 | 0.118 | 0.517 | 0.394 | 0.71 | 0.682 | 0.75 | 0.649 | 0.676 | 0.386 | 1 | 0.657 | 0.394 | 0.65 | 0.486 | 0.339 | 0.522
3 | 0.89 | COc1nnc2ccc(N3CCC(c4ccc(OCCN5CCN(C)C(=O)[C@H]5C)cc4)CC3)nn12 [AZD5153] + C[C@@H]1COCCN1C2=NC(=NC(=C2)C3(CC3)[S@](=N)(=O)C)C4=C5C=CNC5=NC=C4 [AZD6738] (first compound max 1 µM, 7x7, partner max 10 µM) | 0.913 | 0.808 | 0.944 | 0.497 | 0.816 | 0.204 | 0.794 | 0.772 | 0.835 | 0.71 | 0.923 | 0.447 | 1 | 0.783 | 0.574 | 0.81 | 0.515 | 0.465 | 0.728
4 | 0.451 | COc1nnc2ccc(N3CCC(c4ccc(OCCN5CCN(C)C(=O)[C@H]5C)cc4)CC3)nn12 [AZD5153] + Cc1c2c(nn1C)CSCc1cc(n(C)n1)CSc1cc(c3ccccc3c1)OCCCc1c(C(=O)O)n(C)c3c-2c(Cl)ccc13 [AZD5991] (first compound max 1 µM, 7x7, partner max 1 µM) | 0.993 | 1 | 1 | 0.109 | 0.56 | 0.309 | 0.798 | 0.544 | 1 | 0.628 | 0.487 | 0.367 | 1 | 0.722 | 0.419 | 0.642 | 0.749 | 0.365 | 0.752
5 | 0.299 | COc1nnc2ccc(N3CCC(c4ccc(OCCN5CCN(C)C(=O)[C@H]5C)cc4)CC3)nn12 [AZD5153] + Cn1cnc2c(F)c(Nc3ccc(Br)cc3Cl)c(C(=O)NOCCO)cc21 [Selumetinib] (first compound max 1 µM, 7x7, partner max 10 µM) | 0.546 | 0.683 | 0.699 | 0.265 | 0.619 | 0.277 | 0.729 | 0.662 | 0.99 | 0.82 | 0.482 | 0.534 | 1 | 0.844 | 0.584 | 0.73 | 0.391 | 0.537 | 0.938
6 | 0.968 | Cc1c2c(nn1C)CSCc1cc(n(C)n1)CSc1cc(c3ccccc3c1)OCCCc1c(C(=O)O)n(C)c3c-2c(Cl)ccc13 [AZD5991] + C=CCn1c(=O)c2cnc(Nc3ccc(N4CCN(C)CC4)cc3)nc2n1-c1cccc(C(C)(C)O)n1 [AZD1775] (first compound max 1 µM, partner max 1 µM) | 0.958 | 0.791 | 0.997 | 0.537 | 0.732 | 0.358 | 0.83 | 0.684 | 1 | 0.857 | 0.829 | 0.427 | 0.979 | 0.744 | 0.555 | 0.418 | 0.853 | 0.172 | 0.63
7 | 0.271 | Cc1c2c(nn1C)CSCc1cc(n(C)n1)CSc1cc(c3ccccc3c1)OCCCc1c(C(=O)O)n(C)c3c-2c(Cl)ccc13 [AZD5991] + CCN(CCO)CCCOc1ccc2c(Nc3cc(CC(=O)Nc4cccc(F)c4)[nH]n3)ncnc2c1 [AZD2811] (first compound max 1 µM, 7x7, partner max 1 µM) | 0.846 | 0.839 | 0.955 | 0.298 | 0.288 | 0.387 | 0.406 | 0.404 | 1 | 0.623 | 0.603 | 0.204 | 0.985 | 0.335 | 0.256 | 0.321 | 0.868 | 0.213 | 0.338
8 | 0.201 | Cc1c2c(nn1C)CSCc1cc(n(C)n1)CSc1cc(c3ccccc3c1)OCCCc1c(C(=O)O)n(C)c3c-2c(Cl)ccc13 [AZD5991] + CN(C)CCCOc1ccc(-c2ccc3ncc4c(c3c2)n(C2CCOCC2)c(=O)n4C)cn1 [AZD0156] (first compound max 1 µM, 7x7, partner max 1 µM) | 0.69 | 0.638 | 0.925 | 0.241 | 0.196 | 0.222 | 0.368 | 0.265 | 1 | 0.586 | 0.324 | 0.203 | 0.98 | 0.443 | 0.209 | 0.351 | 0.786 | 0.206 | 0.327
9 | 0.814 | Cc1c2c(nn1C)CSCc1cc(n(C)n1)CSc1cc(c3ccccc3c1)OCCCc1c(C(=O)O)n(C)c3c-2c(Cl)ccc13 [AZD5991] + C[C@@H]1COCCN1C2=NC(=NC(=C2)C3(CC3)[S@](=N)(=O)C)C4=C5C=CNC5=NC=C4 [AZD6738] (first compound max 1 µM, 7x7, partner max 10 µM) | 0.966 | 0.919 | 0.965 | 0.491 | 0.795 | 0.228 | 0.71 | 0.709 | 1 | 0.683 | 0.926 | 0.283 | 0.998 | 0.815 | 0.555 | 0.546 | 0.796 | 0.255 | 0.852
10 | 0.11 | Cc1c2c(nn1C)CSCc1cc(n(C)n1)CSc1cc(c3ccccc3c1)OCCCc1c(C(=O)O)n(C)c3c-2c(Cl)ccc13 [AZD5991] + C[C@@H](Nc1cc(F)cc(F)c1)c1cc(C(=O)N(C)C)cc2c(=O)cc(N3CCOCC3)oc12 [AZD8186] (first compound max 1 µM, 7x7, partner max 3 µM) | 0.876 | 0.582 | 0.997 | 0.21 | 0.254 | 0.246 | 0.386 | 0.234 | 1 | 0.378 | 0.381 | 0.217 | 0.987 | 0.565 | 0.294 | 0.23 | 0.875 | 0.228 | 0.28

Row | SMILES | combination Emax [13] | combination Emax [1] | combination Emax (DSH1 (Bladder Carcinoma)) | combination Emax [2] | combination Emax [3] | combination Emax [4] | combination Emax (SN12C (Kidney Carcinoma)) | combination Emax [5] | combination Emax [6] | combination Emax [7] | combination Emax [8] | combination Emax [9] | combination Emax [10] | combination Emax [11] | combination Emax (SK-N-FI (Neuroblastoma)) | combination Emax [12] | combination Emax [14] | combination Emax (CAL-78 (Chondrosarcoma)) | combination Emax [15] | combination Emax (IGR-1 (Melanoma))
11 | COc1nnc2ccc(N3CCC(c4ccc(OCCN5CCN(C)C(=O)[C@H]5C)cc4)CC3)nn12 [AZD5153] + CC1(C)CCC(CN2CCN(c3ccc(C(=O)NS(=O)(=O)c4ccc(NCC5CCOCC5)c([N+](=O)[O-])c4)c(Oc4cnc5[nH]ccc5c4)c3)CC2)=C(c2ccc(Cl)cc2)C1 [Venetoclax] (first compound max 1 µM, 7x7, partner max 1 µM) | 0.377 | 0.498 | 0.623 | 0.761 | 0.108 | 0.522 | 0.318 | 0.691 | 0.498 | 0.927 | 0.535 | 0.477 | 0.315 | 1 | 0.629 | 0.416 | 0.661 | 0.457 | 0.375 | 0.433
12 | Cc1c2c(nn1C)CSCc1cc(n(C)n1)CSc1cc(c3ccccc3c1)OCCCc1c(C(=O)O)n(C)c3c-2c(Cl)ccc13 [AZD5991] + CC1(C)CCC(CN2CCN(c3ccc(C(=O)NS(=O)(=O)c4ccc(NCC5CCOCC5)c([N+](=O)[O-])c4)c(Oc4cnc5[nH]ccc5c4)c3)CC2)=C(c2ccc(Cl)cc2)C1 [Venetoclax] (first compound max 1 µM, 7x7, partner max 1 µM) | 0.312 | 0.862 | 0.964 | 0.935 | 0.164 | 0.204 | 0.21 | 0.258 | 0.253 | 1 | 0.244 | 0.221 | 0.185 | 0.985 | 0.65 | 0.143 | 0.216 | 0.796 | 0.386 | 0.969

Reference: the supplement of paper PMC11061612
